{"source": "ChEMBL document CHEMBL1138747", "about": "“Synthesis and structure--activity relationship in a class of indolebutylpiperazines as dual 5-HT(1A) receptor agonists and serotonin reuptake inhibitors” (J Med Chem, 2004)", "key": {"[1]": {"molecular_target": "T1, Serotonin 3 (5-HT3) receptor (Rattus norvegicus, UniProt P35563+Q9JJ16)", "T1 sequence (P35563 whole entry)": "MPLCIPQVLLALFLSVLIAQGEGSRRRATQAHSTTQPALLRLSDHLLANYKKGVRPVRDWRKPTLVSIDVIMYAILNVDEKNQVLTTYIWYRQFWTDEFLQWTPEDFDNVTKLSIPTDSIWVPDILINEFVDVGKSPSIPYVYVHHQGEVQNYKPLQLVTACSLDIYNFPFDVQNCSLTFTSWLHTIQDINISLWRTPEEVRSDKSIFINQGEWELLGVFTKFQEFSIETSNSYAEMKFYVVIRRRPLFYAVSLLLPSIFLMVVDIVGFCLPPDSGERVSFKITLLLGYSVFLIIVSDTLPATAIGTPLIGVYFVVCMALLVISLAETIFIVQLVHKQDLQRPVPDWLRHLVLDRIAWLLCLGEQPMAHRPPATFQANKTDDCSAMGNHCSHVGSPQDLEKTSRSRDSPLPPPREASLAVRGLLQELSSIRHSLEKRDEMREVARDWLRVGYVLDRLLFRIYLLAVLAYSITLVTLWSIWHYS", "T1 sequence (Q9JJ16 whole entry)": "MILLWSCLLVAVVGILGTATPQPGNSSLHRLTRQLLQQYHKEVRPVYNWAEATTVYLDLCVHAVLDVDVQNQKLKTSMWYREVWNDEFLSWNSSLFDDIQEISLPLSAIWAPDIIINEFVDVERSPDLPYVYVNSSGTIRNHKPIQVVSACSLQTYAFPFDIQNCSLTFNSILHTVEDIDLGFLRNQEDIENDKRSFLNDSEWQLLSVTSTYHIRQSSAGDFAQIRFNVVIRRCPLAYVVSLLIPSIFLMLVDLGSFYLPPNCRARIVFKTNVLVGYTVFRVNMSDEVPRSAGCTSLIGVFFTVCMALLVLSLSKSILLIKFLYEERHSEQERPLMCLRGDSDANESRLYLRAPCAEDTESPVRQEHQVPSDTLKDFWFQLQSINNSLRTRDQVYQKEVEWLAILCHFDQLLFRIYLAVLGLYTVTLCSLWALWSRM", "experiment": "Inhibition against rat hydroxytryptamine 3 receptor", "format": "protein-complex assay"}, "[2]": {"molecular_target": "T2, Adrenergic receptor alpha-1 (Homo sapiens, UniProt P35348+P25100+P35368)", "T2 sequence (P35348 whole entry)": "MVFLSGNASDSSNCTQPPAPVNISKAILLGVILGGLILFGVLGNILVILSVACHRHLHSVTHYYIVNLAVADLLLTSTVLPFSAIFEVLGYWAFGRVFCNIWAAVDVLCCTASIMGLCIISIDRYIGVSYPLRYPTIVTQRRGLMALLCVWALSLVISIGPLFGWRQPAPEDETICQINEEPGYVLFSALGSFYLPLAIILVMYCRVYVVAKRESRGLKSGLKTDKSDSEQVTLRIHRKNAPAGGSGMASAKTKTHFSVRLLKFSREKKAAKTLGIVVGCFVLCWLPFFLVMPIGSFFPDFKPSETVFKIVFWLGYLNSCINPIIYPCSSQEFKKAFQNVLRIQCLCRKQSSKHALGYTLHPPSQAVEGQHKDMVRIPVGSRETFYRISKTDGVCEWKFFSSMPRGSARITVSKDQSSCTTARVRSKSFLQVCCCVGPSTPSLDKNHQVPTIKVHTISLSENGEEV", "T2 sequence (P25100 whole entry)": "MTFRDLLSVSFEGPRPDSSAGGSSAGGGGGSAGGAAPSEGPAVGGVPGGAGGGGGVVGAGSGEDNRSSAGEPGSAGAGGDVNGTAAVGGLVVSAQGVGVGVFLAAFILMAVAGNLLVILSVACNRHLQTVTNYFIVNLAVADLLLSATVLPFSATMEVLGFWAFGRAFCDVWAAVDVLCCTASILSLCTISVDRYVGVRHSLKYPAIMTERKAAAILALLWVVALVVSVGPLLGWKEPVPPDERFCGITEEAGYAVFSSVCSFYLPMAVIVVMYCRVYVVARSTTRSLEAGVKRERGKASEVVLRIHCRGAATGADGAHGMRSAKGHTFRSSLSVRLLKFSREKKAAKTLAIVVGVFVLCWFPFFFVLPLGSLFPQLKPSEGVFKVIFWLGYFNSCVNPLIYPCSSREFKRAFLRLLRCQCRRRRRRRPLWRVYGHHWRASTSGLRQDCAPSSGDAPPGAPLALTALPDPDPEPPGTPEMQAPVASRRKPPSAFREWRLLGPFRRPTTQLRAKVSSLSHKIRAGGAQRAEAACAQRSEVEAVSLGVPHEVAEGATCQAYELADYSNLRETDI", "T2 sequence (P35368 whole entry)": "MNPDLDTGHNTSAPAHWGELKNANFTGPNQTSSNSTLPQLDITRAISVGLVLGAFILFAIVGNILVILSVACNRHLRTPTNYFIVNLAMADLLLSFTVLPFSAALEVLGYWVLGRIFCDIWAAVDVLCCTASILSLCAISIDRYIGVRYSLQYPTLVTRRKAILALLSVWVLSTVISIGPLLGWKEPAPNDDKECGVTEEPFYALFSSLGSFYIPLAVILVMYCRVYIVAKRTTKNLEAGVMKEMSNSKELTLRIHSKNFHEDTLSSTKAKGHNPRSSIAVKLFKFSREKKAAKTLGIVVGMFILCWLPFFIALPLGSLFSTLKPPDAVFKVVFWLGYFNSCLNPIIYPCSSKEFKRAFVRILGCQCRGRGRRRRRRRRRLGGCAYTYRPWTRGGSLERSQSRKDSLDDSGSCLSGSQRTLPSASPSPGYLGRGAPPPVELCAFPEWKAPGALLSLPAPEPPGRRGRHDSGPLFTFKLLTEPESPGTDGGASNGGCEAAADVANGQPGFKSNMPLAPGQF", "experiment": "Inhibition of alpha-1-adrenergic receptor", "format": "protein assay"}, "[3]": {"molecular_target": "5-hydroxytryptamine receptor 1B (Rattus norvegicus, UniProt P28564)", "sequence (P28564 whole entry)": "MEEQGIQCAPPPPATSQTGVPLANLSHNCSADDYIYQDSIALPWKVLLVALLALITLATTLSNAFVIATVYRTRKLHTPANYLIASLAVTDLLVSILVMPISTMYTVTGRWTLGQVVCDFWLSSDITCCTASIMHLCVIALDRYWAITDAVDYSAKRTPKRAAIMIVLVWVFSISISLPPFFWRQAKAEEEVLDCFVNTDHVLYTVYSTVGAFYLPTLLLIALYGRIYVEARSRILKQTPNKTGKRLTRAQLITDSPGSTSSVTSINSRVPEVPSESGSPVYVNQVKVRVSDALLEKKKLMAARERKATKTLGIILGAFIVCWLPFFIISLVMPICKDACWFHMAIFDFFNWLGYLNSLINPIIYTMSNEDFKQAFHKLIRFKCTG", "experiment": "Inhibition of rat hydroxytryptamine 1B receptor"}}, "data": [{"smiles": "N#Cc1ccc2[nH]cc(CCCCN3CCN(c4ccc5oc(C(N)=O)cc5c4)CC3)c2c1", "note": "[VILAZODONE]", "values": [{"measurement": "IC50", "setting": "[1]", "result": 4.3, "unit": "µM"}, {"measurement": "IC50", "setting": "[2]", "result": 1.98, "unit": "µM"}, {"measurement": "IC50", "setting": "[3]", "result": 5, "unit": "µM"}]}]}
